± gives the expanded uncertainty stated by the source.
Assay: mn = molality of the nth substance listed, in mol/kg
Details: 298.15 K, 101 kPa, Liquid, Vibrating tube method

O=S(=O)(O)CC(O)CN1CCOCC1 (stereo not drawn) [3-morpholino-2-hydroxypropanesulfonic acid] + O
Details | mass density [kg/m3]
m1 = 0.0126 | 998.04 ± 0.13
m1 = 0.0178 | 998.45 ± 0.13
m1 = 0.0228 | 998.84 ± 0.13
m1 = 0.027 | 999.17 ± 0.13
m1 = 0.036 | 999.87 ± 0.13
m1 = 0.045 | 1000.57 ± 0.13
m1 = 0.0519 | 1001.1 ± 0.13
m1 = 0.063 | 1001.95 ± 0.13
m1 = 0.0706 | 1002.53 ± 0.13
m1 = 0.0771 | 1003.03 ± 0.13

O=S(=O)(O)CCCCN1CCOCC1 [4-morpholinebutanesulfonic acid] + O
Details | mass density [kg/m3]
m1 = 0.0134 | 997.89 ± 0.13
m1 = 0.0201 | 998.3 ± 0.13
m1 = 0.0282 | 998.8 ± 0.13
m1 = 0.0365 | 999.31 ± 0.13
m1 = 0.0456 | 999.87 ± 0.13
m1 = 0.054 | 1000.38 ± 0.13
m1 = 0.0636 | 1000.96 ± 0.13
m1 = 0.0702 | 1001.35 ± 0.13
m1 = 0.0768 | 1001.74 ± 0.13
m1 = 0.0827 | 1002.09 ± 0.13

O=S(=O)(O)CCN1CCOCC1 [4-morpholineethanesulfonic acid] + O
Details | mass density [kg/m3]
m1 = 0.0114 | 997.79 ± 0.13
m1 = 0.018 | 998.22 ± 0.13
m1 = 0.0237 | 998.59 ± 0.13
m1 = 0.0301 | 999.01 ± 0.13
m1 = 0.0403 | 999.67 ± 0.13
m1 = 0.0513 | 1000.38 ± 0.13
m1 = 0.0614 | 1001.03 ± 0.13
m1 = 0.0722 | 1001.72 ± 0.13
m1 = 0.0822 | 1002.35 ± 0.13
m1 = 0.0947 | 1003.14 ± 0.13

O=S(=O)(O)CCCN1CCOCC1 [4-morpholinepropanesulfonic acid] + O
Details | mass density [kg/m3]
m1 = 0.0077 | 997.53 ± 0.12
m1 = 0.0172 | 998.13 ± 0.12
m1 = 0.0292 | 998.88 ± 0.12
m1 = 0.0386 | 999.46 ± 0.12
m1 = 0.0496 | 1000.14 ± 0.12
m1 = 0.0556 | 1000.5 ± 0.12
m1 = 0.0611 | 1000.84 ± 0.12
m1 = 0.0668 | 1001.19 ± 0.12
m1 = 0.0736 | 1001.59 ± 0.12
m1 = 0.0812 | 1002.05 ± 0.12
m1 = 0.0869 | 1002.39 ± 0.12

[Br-].[K+] [potassium bromide] + O
Details | mass density [kg/m3]
m1 = 0.05 | 1001.25 ± 0.13
m1 = 0.16 | 1010.47 ± 0.13
m1 = 0.25 | 1017.89 ± 0.14

[Cl-].[K+] [potassium chloride] + O
Details | mass density [kg/m3]
m1 = 0.05 | 999.45 ± 0.12
m1 = 0.16 | 1004.53 ± 0.12
m1 = 0.25 | 1008.66 ± 0.12

CC(=O)[O-].[K+] [potassium ethanoate] + O
Details | mass density [kg/m3]
m1 = 0.05 | 999.46 ± 0.12
m1 = 0.16 | 1004.6 ± 0.1
m1 = 0.25 | 1008.74 ± 0.12

[Cl-].[Na+] [sodium chloride] + O
Details | mass density [kg/m3]
m1 = 0.05 | 999.12 ± 0.13
m1 = 0.16 | 1003.6 ± 0.1
m1 = 0.25 | 1007.22 ± 0.13

Source: the NIST ThermoML archive (doi:10.1016/j.tca.2010.04.004)
